Assay results published in patent publication US10850135B2, “Antiseptic-tolerant lactic acid bacteria” (AB-BIOTICS, S.A., priority 2016, dated 2020).

Legend:
Assay in all cases: Tolerance to antiseptics, disc diffusion assay
[1] = test system: Porphyromonas gingivalis DSM20709; format: cell-based
Protocol: (§1) LAB strains with presumed probiotic properties namely L. brevis, P. acidilactici, P. pentosaceus, S. oralis and S. salivarius were seeded in agar plates with the appropriate nutrient media and incubated in order to obtain isolated colonies. Porphyromonas gingivalis DSM20709 was used as an example of pathogens associated with periodontal pathologies. For each strain the nutritive media and atmospheric conditions used were the most suitable for their proper growth as summarized in TABLE 1.
(§2) For each microorganism, isolated colonies were used for preparing a suspension in Phosphate Buffered Saline 0.1M (PBS) with an optical density equivalent to a Mc Farland standard No. 3. The suspension was used for obtaining a confluent layer of microorganism over the corresponding nutrient medium (TABLE 1) by uniformly seeding the microorganism using a sterile swab.
(§3) Immediately after the inoculation of the strains in the plates, 6 mm of cellulose discs were placed. The discs were impregnated with different conventional antiseptics according to TABLE 2:
(§4) The volume used was the maximum allowed by the disc without spreading on the medium. The solvent was confirmed to not be inhibitory against the bacteria at the amount used. Microorganism were allowed to grow according to the conditions of TABLE 1, and halos of inhibition (in millimeters) measured after 24 h or 48 h according to the corresponding optimal growth conditions for the microorganisms. Results were obtained in triplicate.

[2] = test system: Streptococcus sp. strains (S. oralis, S. salivarius K12); format: cell-based
Protocol: as §1, §2, §3, §4

L. brevis CD2 = format: cell-based, Lactobacillus brevis
Protocol: as §1, §2, §3, §4

[3] = test system: Pediococcus strains (P. acidilactici CECT8633, P. acidilactici AB134, P. pentosaceus CECT8330); format: cell-based, Pediococcus sp.; conditions: for resistance compared with the other strains tested (disc diffusion): vs L. brevis, Streptococcus sp. and P. gingivalis
Protocol: as §1, §2, §3, §4

P. acidilactici CECT8633 = format: cell-based, Pediococcus acidilactici
Protocol: as §1, §2, §3, §4

[4] = test system: Pediococcus pentosaceous CECT8330; format: cell-based, Pediococcus pentosaceus; conditions: 6 mm discs impregnated with chlorhexidine; concentration not given
Protocol: as §1, §2, §3
as §4, with “The solvent was confirmed to not be inhibitory against the bacteria at the amount used.” left out, “Results were obtained in triplicate.” left out

P. acidilactici AB134 = format: cell-based, Pediococcus acidilactici; conditions: 6 mm discs impregnated with chlorhexidine; concentration not given
Protocol: as §1, §2, §3, §4

[5] = highest concentration tested 0.12%, v/v
[6] = 6 mm discs impregnated with chlorhexidine, concentration not given
[7] = any of the concentration tested (0.12%, 0.06%, 0.03%)
[8] = highest concentration tested 1.2 mg/mL, 5 uL per disc
[9] = triclosan at different concentrations (0.2%, 0.1%, 0.05%), 5 uL per disc

N=C(NCCCCCCNC(=N)NC(=N)Nc1ccc(Cl)cc1)NC(=N)Nc1ccc(Cl)cc1.O=C(O)[C@H](O)[C@@H](O)[C@H](O)[C@H](O)CO.O=C(O)[C@H](O)[C@@H](O)[C@H](O)[C@H](O)CO [chlorhexidine gluconate]
inhibition (halo, disc diffusion) [1, 5]: all the strains were inhibited
inhibition (halo, disc diffusion) [2, 5]: all the strains were inhibited
inhibition (halo, disc diffusion) (L. brevis CD2; [5]): all the strains were inhibited
inhibition (halo, disc diffusion) [3, 5]: all the strains were inhibited
resistance compared with the other strains tested (disc diffusion) [3]: highest resistance
inhibition halo compared with S. salivarius K12 and P. gingivalis (P. acidilactici CECT8633; chlorhexidine gluconate 0.12%, 20 μl per 6-mm disc (FIG. 7)): lower inhibition halo

NC(=NCCCCCCN=C(N)/N=C(\N)Nc1ccc(Cl)cc1)/N=C(\N)Nc1ccc(Cl)cc1 [chlorhexidine, (1E)-2-[6-[[amino-[(E)-[amino-(4-chloroanilino)methylidene]-amino]methylidene]amino]hexyl]-1-[amino-(4-chloroanilino)methylidene]guanidine]
inhibition halo [1, 6]: 9 mm
inhibition (halo, disc diffusion) [1, 7]: inhibited at any of the concentration tested
inhibition (halo, disc diffusion) [1, 5]: all the strains were inhibited
inhibition (halo, disc diffusion) [2, 7]: inhibited at any of the concentration tested
inhibition (halo, disc diffusion) [2, 5]: all the strains were inhibited
inhibition (halo, disc diffusion) (L. brevis CD2; concentrations of 0.12% and 0.06%): inhibited
inhibition (halo, disc diffusion) (L. brevis CD2; [5]): all the strains were inhibited
inhibition (halo, disc diffusion) [3, 5]: all the strains were inhibited
resistance compared with the other strains tested (disc diffusion) [3]: greatest resistance
inhibition halo [4]: 4 mm
inhibition halo (P. acidilactici AB134): 2 mm
inhibition halo (P. acidilactici CECT8633; [6]): 3 mm

Cc1ccc(C(C)C)c(O)c1 [thymol, 2-isopropyl-5-methylphenol]
growth inhibition (halo, disc diffusion) [1, 8]: inhibited the growth
growth inhibition (halo, disc diffusion) [2, 8]: inhibited the growth

Oc1cc(Cl)ccc1Oc1ccc(Cl)cc1Cl [triclosan, 5-Chloro-2-(2,4-dichlorophenoxy)phenol]
inhibition (halo, disc diffusion) [1, 9]: inhibited
inhibition (halo, disc diffusion) [2, 9]: inhibited
inhibition (halo, disc diffusion) (L. brevis CD2; [9]): neither Lactobacillus brevis nor the strains belonging to Pediococcus genus were inhibited
inhibition (halo, disc diffusion) [3, 9]: neither Lactobacillus brevis nor the strains belonging to Pediococcus genus were inhibited
